Experimental data: PubChem BioAssay (NCI)
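Step 1: Grow cells in 96-well plates. Step 2: Expose to compound for 48 hours at 5 concentrations. Step 3: Interpolate endpoints linearly; if unreached, use highest concentration. GI50: concentration for 50% inhibition of growth. TGI: total growth inhibition.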

How the values were obtained:
Experiment in all cases: NCI tumour cell line growth inhibition, 48 h
786-0 renal = system: 786-0 renal
A498 renal = system: A498 renal
A549 NSCLC = system: A549 NSCLC
ACHN renal = system: ACHN renal
BT-549 breast = system: BT-549 breast
CAKI-1 renal = system: CAKI-1 renal
COLO 205 colon = system: COLO 205 colon
DU-145 prostate = system: DU-145 prostate
EKVX NSCLC = system: EKVX NSCLC
HCT-116 colon = system: HCT-116 colon
HCT-15 colon = system: HCT-15 colon
HL-60(TB) leukemia = system: HL-60(TB) leukemia
HOP-62 NSCLC = system: HOP-62 NSCLC
HOP-92 NSCLC = system: HOP-92 NSCLC
HS 578T breast = system: HS 578T breast
HT29 colon = system: HT29 colon
IGROV1 ovarian = system: IGROV1 ovarian
K-562 leukemia = system: K-562 leukemia
KM12 colon = system: KM12 colon
LOX IMVI melanoma = system: LOX IMVI melanoma
M14 melanoma = system: M14 melanoma
MALME-3M melanoma = system: MALME-3M melanoma
MCF7 breast = system: MCF7 breast
MDA-MB-231 breast = system: MDA-MB-231 breast
MDA-MB-435 = system: MDA-MB-435
MOLT-4 leukemia = system: MOLT-4 leukemia
NCI-H226 lung = system: NCI-H226 lung
NCI-H23 lung = system: NCI-H23 lung
NCI-H460 lung = system: NCI-H460 lung
NCI-H522 lung = system: NCI-H522 lung
NCI/ADR-RES ovarian = system: NCI/ADR-RES ovarian
OVCAR-3 ovarian = system: OVCAR-3 ovarian
OVCAR-4 ovarian = system: OVCAR-4 ovarian
OVCAR-5 ovarian = system: OVCAR-5 ovarian
OVCAR-8 ovarian = system: OVCAR-8 ovarian
PC-3 prostate = system: PC-3 prostate
RPMI-8226 leukemia = system: RPMI-8226 leukemia
RXF 393 renal = system: RXF 393 renal
SF-268 CNS = system: SF-268 CNS
SF-295 CNS = system: SF-295 CNS
SF-539 CNS = system: SF-539 CNS
SK-MEL-2 melanoma = system: SK-MEL-2 melanoma
SK-MEL-28 melanoma = system: SK-MEL-28 melanoma
SK-MEL-5 melanoma = system: SK-MEL-5 melanoma
SK-OV-3 ovarian = system: SK-OV-3 ovarian
SN12C renal = system: SN12C renal
SNB-19 CNS = system: SNB-19 CNS
SNB-75 CNS = system: SNB-75 CNS
SR leukemia = system: SR leukemia
SW-620 colon = system: SW-620 colon
T-47D breast = system: T-47D breast
TK-10 renal = system: TK-10 renal
U251 CNS = system: U251 CNS
UACC-257 melanoma = system: UACC-257 melanoma
UACC-62 melanoma = system: UACC-62 melanoma
UO-31 renal = system: UO-31 renal

COc1ccc(CC(C)C(C)Cc2ccc(OC)c(OC)c2)cc1OC (configuration not stated)
GI50 (786-0 renal): 804 µM | TGI (786-0 renal): > 1400 µM | GI50 (A498 renal): > 1400 µM | TGI (A498 renal): > 1400 µM | GI50 (A549 NSCLC): 600 µM | TGI (A549 NSCLC): > 1400 µM | GI50 (ACHN renal): > 1400 µM | TGI (ACHN renal): > 1400 µM | GI50 (BT-549 breast): > 1400 µM | TGI (BT-549 breast): > 1400 µM | GI50 (CAKI-1 renal): > 1400 µM | TGI (CAKI-1 renal): > 1400 µM | GI50 (COLO 205 colon): > 1400 µM | TGI (COLO 205 colon): > 1400 µM | GI50 (DU-145 prostate): > 1400 µM | TGI (DU-145 prostate): > 1400 µM | GI50 (EKVX NSCLC): 986 µM | TGI (EKVX NSCLC): > 1400 µM | GI50 (HCT-116 colon): 1280 µM | TGI (HCT-116 colon): > 1400 µM | GI50 (HCT-15 colon): > 1400 µM | TGI (HCT-15 colon): > 1400 µM | GI50 (HL-60(TB) leukemia): > 1400 µM | TGI (HL-60(TB) leukemia): > 1400 µM | GI50 (HOP-62 NSCLC): 750 µM | TGI (HOP-62 NSCLC): > 1400 µM | GI50 (HOP-92 NSCLC): 235 µM | TGI (HOP-92 NSCLC): > 1400 µM | GI50 (HS 578T breast): > 1400 µM | TGI (HS 578T breast): > 1400 µM | GI50 (HT29 colon): > 1400 µM | TGI (HT29 colon): > 1400 µM | GI50 (IGROV1 ovarian): 800 µM | TGI (IGROV1 ovarian): > 1400 µM | GI50 (K-562 leukemia): > 1400 µM | TGI (K-562 leukemia): > 1400 µM | GI50 (KM12 colon): > 1400 µM | TGI (KM12 colon): > 1400 µM | GI50 (LOX IMVI melanoma): > 1400 µM | TGI (LOX IMVI melanoma): > 1400 µM | GI50 (M14 melanoma): > 1400 µM | TGI (M14 melanoma): > 1400 µM | GI50 (MALME-3M melanoma): > 1400 µM | TGI (MALME-3M melanoma): > 1400 µM | GI50 (MCF7 breast): 650 µM | TGI (MCF7 breast): > 1400 µM | GI50 (MDA-MB-231 breast): 126 µM | TGI (MDA-MB-231 breast): > 1400 µM | GI50 (MDA-MB-435): > 1400 µM | TGI (MDA-MB-435): > 1400 µM | GI50 (MOLT-4 leukemia): > 1400 µM | TGI (MOLT-4 leukemia): > 1400 µM | GI50 (NCI-H226 lung): 908 µM | TGI (NCI-H226 lung): > 1400 µM | GI50 (NCI-H23 lung): 297 µM | TGI (NCI-H23 lung): > 1400 µM | GI50 (NCI-H460 lung): > 1400 µM | TGI (NCI-H460 lung): > 1400 µM | GI50 (NCI-H522 lung): 79.7 µM | TGI (NCI-H522 lung): > 1400 µM | GI50 (NCI/ADR-RES ovarian): > 1400 µM | TGI (NCI/ADR-RES ovarian): > 1400 µM | GI50 (OVCAR-3 ovarian): > 1400 µM | TGI (OVCAR-3 ovarian): > 1400 µM | GI50 (OVCAR-4 ovarian): 1140 µM | TGI (OVCAR-4 ovarian): > 1400 µM | GI50 (OVCAR-5 ovarian): > 1400 µM | TGI (OVCAR-5 ovarian): > 1400 µM | GI50 (OVCAR-8 ovarian): > 1400 µM | TGI (OVCAR-8 ovarian): > 1400 µM | GI50 (PC-3 prostate): > 1400 µM | TGI (PC-3 prostate): > 1400 µM | GI50 (RPMI-8226 leukemia): 96.7 µM | TGI (RPMI-8226 leukemia): > 1400 µM | GI50 (RXF 393 renal): 255 µM | TGI (RXF 393 renal): 950 µM | GI50 (SF-268 CNS): > 1400 µM | TGI (SF-268 CNS): > 1400 µM | GI50 (SF-295 CNS): 642 µM | TGI (SF-295 CNS): > 1400 µM | GI50 (SF-539 CNS): > 1400 µM | TGI (SF-539 CNS): > 1400 µM | GI50 (SK-MEL-2 melanoma): > 1400 µM | TGI (SK-MEL-2 melanoma): > 1400 µM | GI50 (SK-MEL-28 melanoma): > 1400 µM | TGI (SK-MEL-28 melanoma): > 1400 µM | GI50 (SK-MEL-5 melanoma): 112 µM | TGI (SK-MEL-5 melanoma): > 1400 µM | GI50 (SK-OV-3 ovarian): > 1400 µM | TGI (SK-OV-3 ovarian): > 1400 µM | GI50 (SN12C renal): > 1400 µM | TGI (SN12C renal): > 1400 µM | GI50 (SNB-19 CNS): > 1400 µM | TGI (SNB-19 CNS): > 1400 µM | GI50 (SNB-75 CNS): > 1400 µM | TGI (SNB-75 CNS): > 1400 µM | GI50 (SR leukemia): 915 µM | TGI (SR leukemia): > 1400 µM | GI50 (SW-620 colon): > 1400 µM | TGI (SW-620 colon): > 1400 µM | GI50 (T-47D breast): > 1400 µM | TGI (T-47D breast): > 1400 µM | GI50 (TK-10 renal): > 1400 µM | TGI (TK-10 renal): > 1400 µM | GI50 (U251 CNS): 802 µM | TGI (U251 CNS): > 1400 µM | GI50 (UACC-257 melanoma): 80.7 µM | TGI (UACC-257 melanoma): > 1400 µM | GI50 (UACC-62 melanoma): 1130 µM | TGI (UACC-62 melanoma): > 1400 µM | GI50 (UO-31 renal): > 1400 µM | TGI (UO-31 renal): > 1400 µM
